Data set [1] is described as follows: Iron binding capacity by the ferrozine method. The data set is classed as physicochemical. Particulars: for iron binding capacity: ferrozine method. How it is done:
Iron saturated mycobactin J was purchased from Allied Monitor (Fayette, Mo.). Iron was removed and mycobactin purified by initially reconstituting the lyophilized solution of crude Fe^3+-mycobactin J complex in CHCl3 and 4N HCl. The suspension was stirred for 30 min. The water phase was separated and 4N HCl was added. After being stirred for 30 min, water phase was removed; this process was conducted three times to provide clear color solution. The CHCl3 phase was dried over Na2SO4, and concentrated in vacuo. Purification by SiO2 (CHCl3:MeOH=20:1) gave Fe^3+-free mycobactin J. The preparation was determined to be greater than 94% pure by NMR spectroscopy. Crude preparations of mycobactin J (50 mgs) yielded 9.8 mg following iron removal and purification. The iron binding capacity of iron saturated and Fe^3+-free preparations were determined by the ferrozine method (Eagle Diagnostics, Desoto, Tex.).

The subject of data set [2] is TNF-α. Description: TNF-α production after exposure to iron chelators (L929-cytotoxicity assay). The data set is classed as cell-based, human; guinea pig. The note with it: following HIF-1α upregulation and nuclear translocation. How it is done: (§1) Alveolar macrophages were procured from naïve and BCG-vaccinated guinea pigs by lavage of the lungs in situ immediately following euthanasia. The isolated cells were subjected to Percoll gradient centrifugation (BO & Babiuk) to remove contaminating epithelial cells, neutrophils and erythrocytes. The cells were subsequently incubated overnight in chamber slides (Nunc) in RPMI medium with 10% fetal bovine serum (FBS) and antibiotics to allow the cells to adhere. THP-1 and HL60 cells, obtained from the ATCC (Rockville, Md.), were maintained in suspension in RPMI/10% FBS. The various cell types were washed thoroughly in Hank's balanced salt solution (HBSS) before incubation in HBSS without or with mycobactin or desferroxamine at various concentrations and for various length of time (see result section). At the end of the incubation time the spend media were collected and stored at −70° C. for later assay for IL-8 and TNF-α. The cells were then either spotted onto Teflon coated slides for immunolabelling for HIF-1α or HO-1 (see above) or were subjected to differential lysis to procure cytoplasmic and nuclear proteins, respectively. The protein samples were separated on 10% SDS-polyacrylamide gels and blotted onto nitrocellulose membranes. […]
(§2) TNF-α was quantitated using the L929-cytotoxicity assay and TGFβ1 assay was done by ELISA.

Data set [3] deals with TGFβ1. The data set is described as follows: TGFβ1 production after exposure to iron chelators (ELISA). Particulars: following HIF-1α upregulation and nuclear translocation. The data set is classed as cell-based, human; guinea pig. On the procedure: as §1, §2
In general terms: An ELISA detects its analyte on a solid surface through an enzyme-linked reagent.

In data set [4] the test system is HIF-1α in THP-1 and HL-60 cells and guinea pig alveolar macrophages. The data set is described as follows: Induction of HIF-1α in myelomonocytic cells and alveolar macrophages exposed to iron chelators in vitro. Type of data set: cell-based, human; guinea pig. Particulars: for accumulation of cytoplasmic HIF-1α followed by nuclear translocation in a subset of the cells / concentration for HIF-1α induction effect (molar level): THP-1, HL-60 cells and guinea pig alveolar macrophages.

Data set [5] deals with IL-8. The data set is described as follows: IL-8 secretion after exposure to iron chelators (ELISA). The data set is classed as cell-based, human; guinea pig. The note with it: following HIF-1α nuclear translocation; enhanced by PMA differentiation of the human cells.

In the case of “Fe^3+-mycobactin J complex [Fe^3+-saturated mycobactin]”, the iron binding capacity in data set [1] amounted to 0 µmol/L.
In the case of mycobactin J, the “induction of TNF-α production” value in data set [2] was “minimal”. Moreover, the “induction of TGFβ1 production” value in data set [3] is given as “minimal”. Moreover, in data set [1] (compared on a molar equivalent), the “iron binding capacity compared with desferrioxamine” value is on record as “lower iron binding capacity than desferrioxamine”. Moreover, in data set [4], the “accumulation of cytoplasmic HIF-1α followed by nuclear translocation in a subset of the cells” value was “induced accumulation of cytoplasmic HIF-1α in a dose-dependent manner” and the “concentration for HIF-1α induction effect (molar level)” value lay within 1 to 5 µM. Also, the “potency at inducing HIF-1α compared with desferrioxamine” value in data set [4] (THP-1 cells in vitro, molar equivalent) is recorded as “significantly more potent”. Further, the IL-8 secretion result in data set [5] is on record as “induction of IL-8 secretion”.
“Fe^3+-free mycobactin J [Fe^3+-free preparation]” displayed an iron binding capacity in data set [1] of 66.7 µmol/L.
As to `CC(=O)N(O)CCCCCNC(=O)CCC(=O)N(O)CCCCCNC(=O)CCC(=O)N(O)CCCCCN` [desferroxamine, reference compound], in data set [2], the “induction of TNF-α production” value was “minimal”. For the same molecule, the “induction of TGFβ1 production” value in data set [3] is on record as “minimal”. Moreover, in data set [4], the “accumulation of cytoplasmic HIF-1α followed by nuclear translocation in a subset of the cells” value is “induced accumulation of cytoplasmic HIF-1α in a dose-dependent manner” and the “concentration for HIF-1α induction effect (molar level)” value is 10 to 100 µM. Moreover, the IL-8 secretion result in data set [5] is given as “induction of IL-8 secretion”.

These data come from patent US8268330B2 (priority 2007, dated 2012).
